Assay results: ChEMBL document CHEMBL1131097, “2-Deoxy derivative is a partial agonist of the intracellular messenger inositol 3,4,5,6-tetrakisphosphate in the epithelial cell line T84” (J Med Chem, 1998)

Legend:
[1] = tested on: T84; assay: Inhibition of calcium-mediated chloride secretion in the intestinal epithelial cell line T84 by measuring short circuit current at 200 uM concentration; Ineffective; type: functional, cell-based; conditions: Homo sapiens
[2] = tested on: T84; assay: Inhibition of calcium-mediated chloride secretion in the intestinal epithelial cell line T84 by measuring short circuit current at 400 uM concentration; Maximum; type: functional, cell-based; conditions: Homo sapiens

## CCCCO[C@@H]1C[C@H](OP(=O)(OCOC(C)=O)OCOC(C)=O)[C@@H](OP(=O)(OCOC(C)=O)OCOC(C)=O)[C@H](OP(=O)(OCOC(C)=O)OCOC(C)=O)[C@H]1OP(=O)(OCOC(C)=O)OCOC(C)=O (racemic)
[1]
  inhibition: Ineffective
[2]
  inhibition: Ineffective
